molecular target: T1, Carboxypeptidase A1 (Bos taurus, UniProt P00730); experiment: Inhibition of bovine carboxypeptidase A (CPA) using hippuryl-L-phenylalanine (Hipp-L-Phe) as a substrate.
T1 sequence (P00730 whole entry): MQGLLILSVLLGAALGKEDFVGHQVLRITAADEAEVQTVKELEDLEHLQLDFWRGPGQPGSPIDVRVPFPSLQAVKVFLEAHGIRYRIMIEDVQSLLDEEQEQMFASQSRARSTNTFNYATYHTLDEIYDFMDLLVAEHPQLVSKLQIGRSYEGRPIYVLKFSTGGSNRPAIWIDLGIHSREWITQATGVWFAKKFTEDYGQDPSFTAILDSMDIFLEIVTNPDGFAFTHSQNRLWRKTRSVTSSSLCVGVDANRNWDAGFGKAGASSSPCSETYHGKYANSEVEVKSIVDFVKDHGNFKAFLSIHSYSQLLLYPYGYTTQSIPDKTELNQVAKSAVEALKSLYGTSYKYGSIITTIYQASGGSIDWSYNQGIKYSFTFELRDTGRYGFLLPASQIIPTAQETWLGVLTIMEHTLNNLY

Question: With `CCNC(CS)C(=O)O` (stereo not given) as the compound, how does the Ki read?
Answer: 1.4 µM

Question: For `O=C(O)[C@@H](CS)NC1CCCCC1`, which Ki is on record?
Answer: 2.9 µM

Question: How did the Ki turn out when `CN(Cc1ccccc1)C(CS)C(=O)O` (stereo not given) was run?
Answer: 12 µM

Question: How did the Ki turn out when `O=C(O)C(CS)CCCCc1ccccc1` (stereo not given) was run?
Answer: 1.3 µM

Question: How did the Ki turn out when `CNC(CS)C(=O)O` (stereo not given) was run?
Answer: 2.4 µM

Question: For `CCCNC(CS)C(=O)O` (stereo not given), which Ki is on record?
Answer: 5.6 µM

Question: `O=C(O)C(CS)NCCCc1ccccc1` (stereo not given) was tested. Which Ki did it give?
Answer: 1.3 µM

Question: `CC(C)CC(CS)C(=O)O` (stereo not given) was tested. Which Ki did it give?
Answer: 0.16 µM

Question: For `O=C(O)C(CS)NCCc1ccccc1` (stereo not given), which Ki is on record?
Answer: 0.065 µM

Question: For `CC(C)N[C@@H](CS)C(=O)O`, which Ki is on record?
Answer: 2.9 µM

Question: With `O=C(O)C(CS)NCc1ccc2ccccc2c1` (stereo not given) as the compound, how does the Ki read?
Answer: > 500 µM

Question: For `O=C(O)C(CS)CCCc1ccccc1` (stereo not given), which Ki is on record?
Answer: 1.35 µM

Question: Which Ki does the source give for `CC(C)N[C@H](CS)C(=O)O` here?
Answer: 0.56 µM

Question: Which Ki does the source give for `O=C(O)C(CS)NCc1ccccc1` (stereo not given) here?
Answer: 0.27 µM

Question: For `O=C(O)C(CS)Nc1ccccc1` (stereo not given), which Ki is on record?
Answer: 5.5 µM

Question: Which Ki does the source give for `CC(C)CNC(CS)C(=O)O` (stereo not given) here?
Answer: 7.5 µM

Question: `CC(C)NC(CS)C(=O)O` (stereo not given) was tested. Which Ki did it give?
Answer: 1.1 µM

Question: How did the Ki turn out when `N[C@@H](CS)C(=O)O` [CYSTEINE] was run?
Answer: 350 µM

Question: With `O=C(O)C(CS)NCC1CCCCC1` (stereo not given) as the compound, how does the Ki read?
Answer: 9.4 µM

Question: For `O=C(O)C(CS)Cc1ccccc1` (stereo not given), which Ki is on record?
Answer: 0.01 µM

Question: How did the Ki turn out when `N[C@H](CS)C(=O)O` was run?
Answer: 2.3 µM

Question: `O=C(O)[C@@H](CS)NCc1ccccc1` was tested. Which Ki did it give?
Answer: 0.19 µM

Question: With `O=C(O)C(CS)NC1CCCCC1` (stereo not given) as the compound, how does the Ki read?
Answer: 9.6 µM

Question: How did the Ki turn out when `O=C(O)[C@H](CS)NCCc1ccccc1` was run?
Answer: 0.61 µM

Question: With `O=C(O)C(CS)NCc1cccc2ccccc12` (stereo not given) as the compound, how does the Ki read?
Answer: 0.81 µM

Question: How did the Ki turn out when `O=C(O)[C@@H](CS)NCCc1ccccc1` was run?
Answer: 0.055 µM

Question: With `O=C(O)[C@H](CS)NC1CCCCC1` as the compound, how does the Ki read?
Answer: 7.9 µM

Question: For `O=C(O)C(CS)CCc1ccccc1` (stereo not given), which Ki is on record?
Answer: 2.1 µM

Question: Which Ki does the source give for `COc1ccc(CNC(CS)C(=O)O)cc1` (stereo not given) here?
Answer: 0.85 µM

Question: `O=C(O)[C@H](CS)NCc1ccccc1` was tested. Which Ki did it give?
Answer: 33 µM
